Source: patent publication US11731966B2, “Compounds and their methods of use” (Praxis Precision Medicines, Inc., priority 2017, dated 2023)

Target: T1, human NaV1.6 (hNaV1.6) (Homo sapiens, UniProt Q9UQD0)
T1 construct: expressed in transfected cells; host or cells: HEK-293 (G418 selection)
Experiment: Modulation of late (persistent) sodium current (INaL), PatchXpress electrophysiology, HEK-293 cells expressing hNaV1.6, ATX-II evoked
Format: cell-based
Conditions: 1 μM compound; HEK-293 cells expressing recombinant human NaV1.6; late current evoked by 300 nM ATX-II; steady-state inhibition
Description: Functional characterization of exemplary compounds to modulate INaL expressed by the NaV16 voltage-gated sodium channel was accomplished using the PatchXpress™ high throughput electrophysiology platform (Molecular Devices, Sunnyvale, Calif.). HEK-293 cells expressing recombinant, human NaV1.6 (hNaV1.6) were grown in DMEM/high-glucose Dulbecco's modified, 10% FBS, 2 mM sodium pyruvate, 10 mM HEPES and 400 μg/mL G418. Cells were grown to 50%-80% confluency prior to harvesting. Trypsinized cells were washed, allowed to recover for 1 hour and then resuspended in extracellular recording solution at a concentration of 1×10^6 cells/ml. The onboard liquid handling facility of the PatchXpress was used for dispensing cells and applying test compounds. NaV late currents were evoked by the application of 300 nM ATX-II. INaL was evoked by depolarizing pulses to 0 mV for 200 ms from a non-inactivating holding potential (e.g., −120 mV) at a frequency of 0.1 Hz. INaL amplitude and stability were determined by analyzing the mean current amplitude over the final 20 ms of the test pulse. Following steady state block with exemplary compounds (e.g., as described herein), a Na^+ free solution containing an impermeant cation (e.g., Choline or NDMG) was added to confirm the identify of the sodium current. Percent steady-state inhibition of INaL was calculated as: [(INaL_compound)/(INaL_control)]*100, where INaL_compound and INaL_control represent INaL recorded in the presence or absence of compound, respectively.
In this table, “A” indicates inhibition of less than 30%; “B” indicates inhibition of between about 30% to about 70%; and “C” indicates inhibition of greater than 70%.

T1 sequence (Q9UQD0 whole entry): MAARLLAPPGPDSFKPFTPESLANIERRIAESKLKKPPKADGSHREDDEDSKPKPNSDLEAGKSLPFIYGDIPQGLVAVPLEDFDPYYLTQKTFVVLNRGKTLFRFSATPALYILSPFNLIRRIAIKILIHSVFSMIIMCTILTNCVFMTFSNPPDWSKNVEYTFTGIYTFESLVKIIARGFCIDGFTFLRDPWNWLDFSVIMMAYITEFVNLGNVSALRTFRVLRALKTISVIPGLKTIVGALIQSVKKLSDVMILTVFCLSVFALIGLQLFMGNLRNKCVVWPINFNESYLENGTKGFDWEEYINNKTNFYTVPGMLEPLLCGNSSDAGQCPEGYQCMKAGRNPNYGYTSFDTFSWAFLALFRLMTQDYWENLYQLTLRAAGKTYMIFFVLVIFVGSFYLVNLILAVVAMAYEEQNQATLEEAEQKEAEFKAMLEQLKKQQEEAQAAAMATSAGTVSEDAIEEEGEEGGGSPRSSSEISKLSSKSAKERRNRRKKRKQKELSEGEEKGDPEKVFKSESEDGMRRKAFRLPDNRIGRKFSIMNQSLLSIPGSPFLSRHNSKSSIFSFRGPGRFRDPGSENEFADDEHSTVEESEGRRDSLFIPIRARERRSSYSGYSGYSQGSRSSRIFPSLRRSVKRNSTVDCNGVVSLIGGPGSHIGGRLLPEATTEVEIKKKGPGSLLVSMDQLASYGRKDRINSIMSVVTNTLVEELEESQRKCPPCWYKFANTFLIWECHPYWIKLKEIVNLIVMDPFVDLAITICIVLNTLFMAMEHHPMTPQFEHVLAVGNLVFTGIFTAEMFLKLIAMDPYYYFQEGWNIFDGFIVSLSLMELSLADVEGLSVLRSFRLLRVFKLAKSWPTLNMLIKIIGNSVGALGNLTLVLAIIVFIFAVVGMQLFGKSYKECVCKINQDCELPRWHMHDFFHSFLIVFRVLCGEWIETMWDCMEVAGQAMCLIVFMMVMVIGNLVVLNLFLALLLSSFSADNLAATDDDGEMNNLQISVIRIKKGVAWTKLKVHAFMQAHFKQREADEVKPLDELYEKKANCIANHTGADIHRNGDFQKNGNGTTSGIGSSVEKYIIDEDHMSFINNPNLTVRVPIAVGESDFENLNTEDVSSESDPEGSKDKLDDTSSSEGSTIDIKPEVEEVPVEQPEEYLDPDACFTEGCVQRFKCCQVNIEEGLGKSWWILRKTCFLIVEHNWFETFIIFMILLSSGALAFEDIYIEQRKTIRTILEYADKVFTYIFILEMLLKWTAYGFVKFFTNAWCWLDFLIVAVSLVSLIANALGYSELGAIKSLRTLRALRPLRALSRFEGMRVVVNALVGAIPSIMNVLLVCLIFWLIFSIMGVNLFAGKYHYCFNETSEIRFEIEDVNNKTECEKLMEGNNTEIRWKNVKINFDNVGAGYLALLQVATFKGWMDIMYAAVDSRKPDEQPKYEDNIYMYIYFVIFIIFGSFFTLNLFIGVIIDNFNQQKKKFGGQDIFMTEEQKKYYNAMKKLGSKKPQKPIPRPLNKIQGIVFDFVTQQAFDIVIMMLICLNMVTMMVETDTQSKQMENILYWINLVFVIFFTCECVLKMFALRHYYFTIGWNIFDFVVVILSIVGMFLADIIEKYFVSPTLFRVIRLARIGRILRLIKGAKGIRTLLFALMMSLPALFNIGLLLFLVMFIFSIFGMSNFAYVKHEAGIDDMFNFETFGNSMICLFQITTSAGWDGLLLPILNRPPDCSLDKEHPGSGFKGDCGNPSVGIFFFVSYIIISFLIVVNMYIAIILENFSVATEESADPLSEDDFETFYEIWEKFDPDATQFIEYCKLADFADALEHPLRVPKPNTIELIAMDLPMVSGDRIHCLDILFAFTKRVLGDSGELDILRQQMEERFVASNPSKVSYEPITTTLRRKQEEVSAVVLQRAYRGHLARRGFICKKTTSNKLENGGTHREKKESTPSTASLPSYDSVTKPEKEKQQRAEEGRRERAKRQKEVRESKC

| Compound | INaL hNaV1.6 (1 μM, % inhibition) |
| --- | --- |
| FC(F)(F)COc1ccc(-c2ccc3nnn(CC(F)(F)F)c3c2)cn1 [Compound 12] | B (inhibition of between about 30% to about 70%) |
| FC(F)(F)Cn1nnc2ccc(-c3ccc(OC4CC(F)(F)C4)cc3)cc21 [Compound 14] | B (inhibition of between about 30% to about 70%) |
| Cn1nnc2ccc(-c3ccc(OC(F)(F)F)cc3)cc21 [Compound 8] | B (inhibition of between about 30% to about 70%) |
| FC(F)(F)Cn1nnc2cnc(-c3ccc(OC(F)(F)F)cc3)cc21 [Compound 20] | A (inhibition of less than 30%) |
| COCc1cc(OC(F)(F)F)ccc1-c1ccc2nnn(CC(F)(F)F)c2n1 [Compound 18] | C (inhibition of greater than 70%) |
| Cc1nnc(CCn2nnc3ccc(-c4ccc(OC(F)(F)F)cc4)cc32)o1 [Compound 15] | B (inhibition of between about 30% to about 70%) |
| COc1cc(OC(F)(F)F)ccc1-c1ccc2nnn(CC(F)(F)F)c2c1 [Compound 11] | A (inhibition of less than 30%) |
| COc1cc(OC(F)(F)F)ccc1-c1ccc2nnn(CC(F)(F)F)c2n1 [Compound 17] | C (inhibition of greater than 70%) |
| FC(F)(F)Cn1nnc2ccc(-c3ccc(OC4CC(F)(F)C4)nc3)cc21 [Compound 10] | A (inhibition of less than 30%) |

Same assay, conditions: HEK293; 1 μM compound; HEK-293 cells expressing recombinant human NaV1.6; late current evoked by 300 nM ATX-II; steady-state inhibition

| Compound | inhibition at 1 µM [%] |
| --- | --- |
| Cc1nnc(CCn2nnc3ccc(-c4ccc(OC(F)(F)F)cc4)nc32)o1 [Compound 9] | 30 to 70 |
| FC(F)(F)Oc1ccc(-c2ccc3nn[nH]c3c2)cc1 [Compound 7] | < 30 |
| N#CC1(c2ccc(-c3ccc4nnn(CC(F)(F)F)c4c3)cc2)CC1 [Compound 5] | < 30 |

Further lines, results first:

| inhibition at 1 µM [%] | Compound |
| --- | --- |
| < 30 | FC(F)(F)Cn1nnc2cnc(-c3ccc(OC(F)(F)F)cc3)nc21 [Compound 19] |
| 30 to 70 | COCc1cc(OC(F)(F)F)ccc1-c1ccc2nnn(CC(F)(F)F)c2c1 [Compound 4] |
| 30 to 70 | FC(F)(F)Cn1nnc2ccc(-c3ccc(OC(F)(F)F)cc3)nc21 [Compound 1] |
| < 30 | FC(F)Cn1nnc2ccc(-c3ccc(OC(F)(F)F)cc3)cc21 [Compound 13] |
| > 70 | FC(F)(F)Cn1nnc2ccc(-c3ccc(OC(F)(F)F)cc3)cc21 [Compound 2] |
| 30 to 70 | COCCn1nnc2ccc(-c3ccc(OC(F)(F)F)cc3)cc21 [Compound 16] |
| < 30 | FC(F)(F)Cn1nnc2ncc(-c3ccc(OC(F)(F)F)cc3)cc21 [Compound 21] |
| 30 to 70 | CCn1nnc2ccc(-c3ccc(OC(F)(F)F)cc3)cc21 [Compound 6] |
